“Also recorded” adds a separate entry of the source.
Assays:
[1] = system: Primary human keratinocytes; assay: Keratinocyte migration, wound scratch assay; type: cell-based
Method: Primary human keratinocytes were grown to 80% confluency. Twenty-four hours before the experiment cells were transferred to basal KBM medium (Life Technologies, Inc., Grand Island, N.Y.). Before the scratch, cells were treated with 8 μg/ml mitomycin C (ICN, Irvine, Calif.) for 1 hour and washed with basal media. Scratches were performed as previously described (Lee, et al., J Mol. Biol., 345:1083-1097 (2005)). Cells were incubated with 20 μmol/L LiCl or 25 ng/ml of EGF for 24 and 48 hours, rephotographed, and cell migration was quantified as previously described (Lee, et al., J. Mol. Biol., 345:1083-1097 (2005); Zavadil. et al., EMBO J., 23:1155-1165 (2004)). Thirty measurements were taken for each experimental condition and distance coverage by cells moving into the scratch wound area was quantified. Three images were analyzed per condition, per time point, and averages and standard deviations were calculated.

wounded human skin [2] = assay: Human skin ex vivo wound model with LiCl; type: cell-based; conditions: 4 mm punch wound, air-liquid interface, 20 mmol/L LiCl, 4 days
From the text: Wounds were created using 4-mm punch biopsies through the reticular dermis and a rim of cells participating in wound healing was collected by re-punching around the initial wounded area. Each time point was collected in parallel with an unwounded skin specimen of the same donor. All specimens were collected and either stored in RNAlater (Ambion, Austin, Tex.) or frozen in OCT compound (Tissue Tek, Reading, Calif.) for immunocytochemistry. To activate β-catenin, wounded skin was maintained on the air-liquid interface in the presence or absence of 20 mmol/L LiCl (Shimm, et al., J. Biol. Chem., 278:19674-19681 (2003)). Wounds were quantified by planimetry as described previously (Stojadinovic, et al., Am. J. Pathol., 167(1):59-69 (2005)).

[3] = system: LEF/TCF-mediated transcription; assay: SuperTopFlash Tcf/Lef luciferase reporter assay in primary human keratinocytes; type: cell-based; conditions: 24 hours; for dexamethasone-mediated induction of LEF/TCF-mediated transcription: Dexamethasone 1 μM with RU486 10 μM or Calphostine C 200 nM
Method: Primary human keratinocytes were plated into 6-well plates and grown to 70% confluence in defined serum-free keratinocyte medium supplemented with epidermal growth factor and bovine pituitary extract (keratinocyte-SFM, GIBCO). Prior to transfection cells were transferred to basal serum—free medium (GIBCO) for 6 h, and then transfected with Tcf/Lef transcriptional activation reporter construct SuperTopFlash (Masckauchán, Mol. Biol. Cell, 17(12):5163-5172 (2006)) containing Tcf responsive elements and renilla-luciferase construct. Transfections were performed in triplicates using 3 μg of reporter plasmid, 0.2 μg of renilla-luciferase plasmid with a FuGene 6 transfection reagent (Roche), following manufacturer's instructions for procedure. Cells were incubated at 37° C. for over night with transfection cocktail and than treated with Dexamethasone (1 μM), RU486 (10 μM) and Calphostine C (200 nM) for 24 hours. Cell lysates were prepared the next day and both firefly and renilla luciferase activities were evaluated using Dual-Luciferase Reporter Assay System (Promega, Madison, Wis.). Samples were read in a luminometer and values were normalized for transfection efficiency using renilla-luciferase activity.

GSK3β = assay: Phospho-GSK3β (Ser 9) Western blot in keratinocytes; type: cell-based, human; conditions: DEX 1 μM with GO6979 400 μM, RU486 10 μM or U73122 10 μM
Method: Extracts for immunoblotting were prepared from a subconfluent 100 mm plate of normal HEK treated with DEX (1 μM), Calphostine C and RU486 (10 μM) or an equal volume of ethanol vehicle 4 hours prior to lysis. Cells were placed on ice; washed twice with phosphate-buffer saline (PBS); and lysed in 0.5 ml of modified RIPA buffer containing 50 mM Hepes, pH 7.5, 150 mM NaCl, 1 mM EDTA, 1 mM EGTA, 1 mM NaF, 1% Triton X-100, 10% glycerol, and additional protease and phosphatase inhibitors (1 mM phenylmethylsulfonyl fluoride, 20 mM glycerophosphate, 8 mM sodium pyrophosphate, 1 μg/ml leupeptin, 1 μg/ml pepstatin A, and 1 μg/ml aprotinin (Roche, Indianapolis, Ind.)) through fine needle aspiration. Lysates were centrifuged at 13,000 rpm for 10 min at 4° C. The soluble supernatants were normalized for total protein concentration using the Bradford protein assay, and the samples were stored at −20° C. Cell extracts were boiled for 5 minutes in Leammli sample buffer, were separated by 10% SDS-PAGE and transferred to nitrocellulose membrane (VWR, Batavia, Ill.) on 100 V for 1 hour in Tris/glycine transfer buffer. The membranes were blocked for 30 minutes in 5% bovine serum albumin in blocking solution (Tris-buffered saline (TBS, pH 7.4) at room temperature and then incubated in blocking solution with primary antibody at 4° C. overnight using 1:500 of serum for anti-c-myc antibody (Santa Cruz). The membranes were washed three times for 5 minutes with TBS and 0.1% Triton X-100 and twice with TBS and incubated for 1 hour at room temperature with horseradish peroxidase-conjugated secondary antibody (Santa Cruz, Calif.). Blots were then washed three times for 5 minutes with TBS and 0.1% Triton X-100 and developed using Super Signal West Pico Chemiluminescent substrate (Pierce, Rockford, Ill.) and exposed on x-ray film (Eastman Kodak Co. Bio Max MR-Film) according to the manufacturer's instructions. For loading control we used anti b-tubulin antibody (Santa Cruz, Santa Cruz, Calif.). Western blot quantification was done using Total Lab Program (Non-linear dynamics Inc., NC). […]

PLC = conditions: human platelets and neutrophils; read-out: IC50, agonist-induced PLC activation; cited from earlier work
protein kinase C (PKC) = conditions: rat brain; cited from earlier work
[4] = system: Ca^2+-independent PKC d-, e-, and z-isozymes; conditions: even at micromolar levels; cited from earlier work
β-catenin = β-catenin nuclearization in primary human epidermal keratinocytes (immunostaining, β-catenin y142); type: cell-based; conditions: 0.1 μmol/L dexamethasone; 200 nM Calphostin C or 10 μM RU486
Method: Topical GC treatment of human skin cepsimens was performed by daily applica-tion of Cormax (Clobetasol Propionate Cream 0.05%; Oclassen Pharmaceuticals, Inc.) using a sterile Q-tip applicator. Samples were fixed in formalin and processed for paraffin embedding following by sectioning to obtain 5-μm-thick sections. Keratinocytes were grown on chamber slides to 70% confluency (Lab-Tek, Naperville, Ill.) and treated with 0.1 μmol/L dexamethasone (Sigma) and incubated in the presence or absence of 200 nM Calphostin C or 10 μM RU486. Cells were fixed in 70% methanol for 10 minutes and permeabilized with 0.1% Triton X-100 for 10 minutes. Human tissues were stained with β-catenin antibody β-catenin phosphorylated Ab (Tyr- 142) (AbCam) at 1:1500 dilution in 5% bovine serum albumin and visualized using a secondary fluorescein isothiocyanate anti-mouse IgG antibody 1:150 (Sigma). All sections were mounted with mounting media. All negative controls were prepared by substitution of the primary antibody with an irrelevant antibody. The sections were analyzed using a Carl Zeiss microscope (Carl Zeiss, Thornwood, N.Y.) and digital images were collected using Adobe TWAIN—32 program.

c-myc = c-myc Western blot in HEK; type: cell-based, human; conditions: DEX 1 μM with Calphostine C or RU486 10 μM, 4 hours
Method: Extracts for immunoblotting were prepared from a subconfluent 100 mm plate of normal HEK treated with DEX (1 μM), Calphostine C and RU486 (10 μM) or an equal volume of ethanol vehicle 4 hours prior to lysis. Cells were placed on ice; washed twice with phosphate-buffer saline (PBS); and lysed in 0.5 ml of modified RIPA buffer containing 50 mM Hepes, pH 7.5, 150 mM NaCl, 1 mM EDTA, 1 mM EGTA, 1 mM NaF, 1% Triton X-100, 10% glycerol, and additional protease and phosphatase inhibitors (1 mM phenylmethylsulfonyl fluoride, 20 mM glycerophosphate, 8 mM sodium pyrophosphate, 1 μg/ml leupeptin, 1 μg/ml pepstatin A, and 1 μg/ml aprotinin (Roche, Indianapolis, Ind.)) through fine needle aspiration. Lysates were centrifuged at 13,000 rpm for 10 min at 4° C. The soluble supernatants were normalized for total protein concentration using the Bradford protein assay, and the samples were stored at −20° C. Cell extracts were boiled for 5 minutes in Leammli sample buffer, were separated by 10% SDS-PAGE and transferred to nitrocellulose membrane (VWR, Batavia, Ill.) on 100 V for 1 hour in Tris/glycine transfer buffer. […] Western blot quantification was done using Total Lab Program (Non-linear dynamics Inc., NC).

wounded human skin [5] = assay: Human skin wound model, topical treatment, epithelialization by planimetry; type: cell-based; conditions: topical DEX 1 μM + Calphostine C 200 μM, 6 days
Method: Wounds were created using 4-mm punch biopsies through the reticular dermis and incubated on the air-liquid interface, as previously described. Immediately upon wounding cells were treated topically with dexamethasone (DEX) (1 μM), Calphostine C (CC) (200 μM) and the combination, DEX+CC and maintained on the air-liquid interface for 6 days. All specimens were frozen in OCT compound (Tissue Tek, Reading; Calif.) for immunocytochemistry. Wounds were quantified by planimetry as described previously (Tomic-Canic, et al., Wound Repair Regen., 15(1):71-9 (2007)).

protein kinase C = conditions: cited from earlier work

Compound	dexamethasone-mediated phosphorylation of GSK3β (GSK3β)	GC-mediated nuclearization (activation) of β-catenin (β-catenin)	dexamethasone-mediated induction of LEF/TCF-mediated transcription [3]	GCs-mediated c-myc activation (c-myc)	further results
[Cl-].[Li+] [LiCl]	–	–	–	–	keratinocyte migration ([1]; 20 μmol/L LiCl or 25 ng/ml of EGF, 24 and 48 hours): inhibited; EGF-stimulated keratinocyte migration ([1]; LiCl with EGF): efficiently blocked; wound healing (planimetry, histology) (wounded human skin [2]): completely inhibited; LEF/TCF-mediated transcription (TopFlash activity) ([3]; agent alone, Dexamethasone 1 μM): increase activity
COc1ccc2c(c1)CCC1C2CC[C@@]2(C)C1CC[C@@H]2NCCCCCCN1C(=O)C=CC1=O (stereo partly drawn) [U-73122]	inhibits	–	–	–	IC50 (PLC): 1 to 2.1 µM
Cn1c2ccccc2c2c3c(c4c5ccccc5n(CCC#N)c4c21)CNC3=O [Go 6976, 12-(2-Cyanoethyl)-6,7,12,13-tetrahydro-13-methyl-5-oxo-5H-indolo(2,3-a)pyrrolo(3,4-c)-carbazole]	block	–	–	–	IC50 (protein kinase C (PKC)): 0.0079 µM; effect on kinase activity of Ca^2+-independent PKC d-, e-, and z-isozymes [4]: does not affect
CC#C[C@]1(O)CC[C@H]2[C@@H]3CCC4=CC(=O)CCC4=C3[C@@H](c3ccc(N(C)C)cc3)C[C@@]21C [RU486, (11b,17b)-11-(4-(Dimethylamino)phenyl)-17-hydroxy-17-(1-propynyl)estra-4,9-dien-3-one]	completely abolished; also recorded: block	blocked	abolished	blocked	–
COc1c(CC(C)OC(=O)Oc2ccc(O)cc2)c2c3c(CC(C)OC(=O)c4ccccc4)c(OC)c(=O)c4c(O)cc(OC)c(c5c(OC)cc(O)c(c1=O)c52)c43 (stereo not drawn) [Calphostin C]	–	blocked	blocked	blocked	dexamethasone-mediated inhibition of epithelialization (wounded human skin [5]): rescues; IC50 (protein kinase C): 0.05 µM
